Experiments:
mPGES-1 [1] = target: T1, mPGES-1 (Homo sapiens, UniProt O14684); assay: A549 cell-based assay (PGE2 formation, IL-1β stimulated, 50% human serum); set-up: host or cells: A549 cells
T1 sequence (O14684 1-152): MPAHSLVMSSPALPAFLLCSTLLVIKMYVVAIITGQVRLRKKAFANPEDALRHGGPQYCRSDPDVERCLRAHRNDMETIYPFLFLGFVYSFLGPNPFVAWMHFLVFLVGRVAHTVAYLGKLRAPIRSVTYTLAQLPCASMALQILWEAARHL
Experimental: Although the enzymatic assay is a high throughput assay the disadvantage is that it uses a recombinant protein which is not in its natural environment. Accordingly a cellular assay was established in which a cell line of human origin (A549) expressing the mPGES-1 protein was used. In addition in order to mimic the situation in humans in which compounds can be bound to plasma proteins 50% human serum is added in the assay. By having the combination of testing mPGES-1 in a cellular environment and the presence of 50% human serum this assay has a higher relevance to judge the therapeutic potential of a mPGES-inhibitor than the pure enzyme assay.
A549 cells (ATCC: CCL-185) are grown to about 90% confluence in F-12K Nutrient Mixture (Kaighn's Mod. Gibco) containing 10% FBS in a humified incubator at 37° C. and 5% CO2. Cells were detached using Trypsin-EDTA. A549 cells were seeded in a 384-well collagene plate at a density of 7000 cells/well (50 μl) in F-12 medium containing 1% Penicillin-Streptomycin and 50% human serum. The cells were allowed to attach for 3-4 h. After that the cells were incubated for 20-24 h in F-12k medium supplemented with 50% human serum, 1% Penicillin-Streptomycin and containing IL-1β at a final concentration of 5 ng/ml as well as 10 nM arachidonic acid in the presence of a vehicle or a test compound. The total volume is 100 μl.
Concentrations of PGE2 in the cell free medium (10 μl) were measured using a commercially available HTRF kit from Cisbio (as described above). The PGE2 formation in the absence of test compound was taken as 100%.
IC50 values were derived from at 6-8 point titrations using conventional software.

mPGES-1 [2] = target: T1, mPGES-1; assay: mPGES-1 enzyme assay (HTRF detection of PGE2); format: biochemical; set-up: made in house; host or cells: Rosetta E. coli (membrane/microsome fraction)
Experimental: Microsomes from Rosetta E. coli bacteria expressing recombinant human mPGES-1 can be derived as described below:
Inoculate 5 ml LB with Ampicilin (50 μg/ml) and Chloramphenicol (34 μg/ml) with bacteria from freeze culture. Incubate 8 h at 37° C. with 200 rpm. Thereafter, inoculate 500-1000 ml LB containing Amp and Chloro with the 5 ml on culture and grow to OD640 of 0.8-1.0. Chill the culture to +4° C. before induction. Induce the culture with IPTG at a final concentration of 400 μM. Express the protein at room temp 18-23° C. with 200 rpm shaking over night.
The following steps can be performed on the following day: • 1. Spin down the cells in 250 ml centrifuge flasks for 15 min at 7000 rpm (Beckmann Coulte Avanti J-E centrifuge) • 2. Dissolve the pellet from 250 ml culture in 12.5 ml homogenization buffer • 3. (15 mM Tris-HCL pH8, 1 mM EDTA pH8, […], 2.5 mM GSH, 1 Tablet Protease inhibitor per 50 ml buffer) • 4. Disintegrate the cells by sonication, 5×10 seconds at 48% amplitude of a 750 W sonifier • 5. Add 2.5 ml MgCl2 (100 mM) and DNase 12.5 μl (0.8 mg/ml) and incubate on ice for 30 min • 6. Spin down the bacteria debris and save the supernatant, 7000 rpm for 15 min • 7. Isolate the protein containing membranes in the supernatant by ultracentrifugation 120000×g for 2 hour at 4° C. (Sorvall T880 rotor). • 8. Discard the supernatant and dissolve the pellet in 20 mM Potassium phosphate buffer pH 7.4 (KH2PO4 and K2HPO4) buffer by sonication (5×10 s, 30% of a 50 W sonifier) and aliquot the enzyme and store aliquots at −80° C.
Before each experiment is performed an aliquot of the enzyme is thawed and it can then be dissolved in 0.1 M Potassium phosphate buffer pH7.4 (KH2PO4 and K2HPO4) buffer containing 2.5 mM GSH.
The aim of this assay is the determine the affinity of a test compound for the mPGES-1 enzyme.
47 μl of recombinant human mPGES-1 (˜0.5 μg protein/well) containing microsomal suspension in a buffer containing GSH, (2.5 mmol/L L-Glutathione reduced, dissolved in 0.1 mol/L Phosphat Buffer pH 7.4) is dispensed in a 384-well plate and thereafter 1 μl of the test compound(s) is/are added and incubated for 25 minutes at room temperature. The enzyme reaction is started by the addition of 2 μl PGH2 (final conc. 2 μM) dissolved in water-free Diglyme. After 60 seconds the reaction is terminated by addition of a stop solution containing FeCl2 (10 μL 0.074 mol/l FeCl2). The samples are diluted between 1:25 in PBS (Phosphate Buffered Saline). 10 μl of the diluted samples are transferred to 384-well low volume plate. In order to quantify the amount of PGE2 that has been formed, a homogenous time resolved fluorescent (HTRF) detecting of PGE2 has been performed using a commercially available kit from Cisbio according to the manufactures recommendation. This HTRF-based assay has been described in detail (see: Goedken et al., J Biomol Screen, 2008, 13(7), 619-625). Briefly, the diluted samples are mixed with 5 μl PGE2-d2 conjungate and 5 μl anti-PGE2 cryptate conjungate. After an incubation period of the plates over night, the fluorescence is measured by the use of an appropriate microplate reader.
The fluorescence of Europium cryptate (maxex=307 nm, maxem=620 nm) and d2-PGE2 (maxex=620 nm, maxem=665 nm) are measured.
The extent of the specific HTRF is measured as a ratio of the emission intensity at 665 nm vs. that at 620 nm at an excitation puls of 320 nm. The quantification plate contains also wells with different concentrations of PGE2 as calibration curve for the calculation of the PGE2 concentrations from the HTRF ratio values.
From all mPGES enzyme assay the background is subtracted and the IC50 is calculated over a nonlinear regression with conventional software.

[3] = A549 cells, IL-1β 5 ng/ml, 20-24 h, Table B, read-out: mPGES-1 inhibitory effect, IC50, cell assay
[4] = recombinant human mPGES-1 microsomes, PGH2 2 μM, Table A, read-out: mPGES-1 inhibitory effect, IC50, enzyme assay

| SMILES | IC50 (mPGES-1 [1]; [3]) [nM] | IC50 (mPGES-1 [2]; [4]) [nM] | melting point [°C] | IC50 (mPGES-1 [1]; Table C comparison of enzym and cell IC50, A549 cells, read-out: Cell IC50) [nM] | IC50 (mPGES-1 [2]; Table C comparison of enzym and cell IC50, read-out: Enzym IC50) [nM] |
| --- | --- | --- | --- | --- | --- |
| CC(C)(C)C(=O)NCc1ccc(Cl)c(Nc2nc3cc(C(=O)N[C@H]4CC[C@H](C(F)(F)F)CC4)c(N4CCC(C(F)(F)F)CC4)nc3n2CC(N)=O)c1Cl [Example 28] | 3 | 1 | 189 to 191 |  |  |
| Cn1c(Nc2c(Cl)ccc(CNC(=O)C(C)(C)C)c2Cl)nc2cc(C(=O)Nc3cccc(OC(F)(F)F)c3)c(N3CCC(C(F)(F)F)CC3)nc21 [Example 40] | 13 | 3 |  |  |  |
| Cn1c(Nc2c(Cl)ccc(CNC(=O)C(C)(C)C)c2Cl)nc2cc(C(=O)NCC(F)(F)F)c(N3CCC(C(F)(F)F)CC3)nc21 [Example 32] | 12 | 4 |  |  |  |
| Cn1c(Nc2cc(CNC(=O)C(C)(C)C)ccc2Cl)nc2cc(C(=O)N[C@H]3CC[C@H](C(F)(F)F)CC3)c(OCC(F)(F)F)cc21 [reference compound] |  |  |  | 89 | 8 |
| CC(C)(C)C(=O)NCc1ccc(Cl)c(Nc2nc3cc(C(=O)N[C@H]4CC[C@H](C(F)(F)F)CC4)c(N4CC5CC5C4)nc3[nH]2)c1Cl (stereo partly drawn) [Example 12] | 2 | 2 |  |  |  |

Second part, the molecule after the results:

| IC50 (mPGES-1 [1]; [3]) [nM] | IC50 (mPGES-1 [2]; [4]) [nM] | melting point [°C] | IC50 (mPGES-1 [1]; Table C comparison of enzym and cell IC50, A549 cells, read-out: Cell IC50) [nM] | IC50 (mPGES-1 [2]; Table C comparison of enzym and cell IC50, read-out: Enzym IC50) [nM] | SMILES |
| --- | --- | --- | --- | --- | --- |
| 7 | 4 | 198 to 200 |  |  | CC(C)(C)C(=O)NCc1ccc(Cl)c(Nc2nc3cc(C(=O)N[C@H]4CC[C@H](C(F)(F)F)CC4)c(N4CCC(C(F)(F)F)CC4)nc3n2C2CC2)c1Cl [Example 26] |
| 1 | 3 | 185 to 186 |  |  | Cn1c(Nc2c(Cl)ccc(CNC(=O)C(C)(C)C)c2Cl)nc2cc(C(=O)N[C@H]3CC[C@H](C(F)(F)F)CC3)c(N3CCC(C(F)(F)F)CC3)nc21 [Example 30, N-(trans-4-Trifluoromethyl-cyclohexyl)-2-{2,6-dichloro-3-[(2,2-dimethyl-propionylamino)-methyl]-phenylamino}-5-[4-trifluoromethyl-piperidinyl]-3-methyl-3H-imidazo[4,5-b]pyridine-6-carboxamide] |
| 2 | 8 |  |  |  | Cn1c(Nc2c(Cl)ccc(CNC(=O)C(C)(C)C)c2Cl)nc2cc(C(=O)N[C@H]3CC[C@H](C(F)(F)F)CC3)c(N3CCC(F)CC3)nc21 [Example 2, N-(trans-4-Trifluoromethyl-cyclohexyl)-2-{2,6-dichloro-3-[(2,2-dimethyl-propionylamino)-methyl]-phenylamino}-5-[-fluoro-piperidinyl]-3-methyl-3H-imidazo[4,5-b]pyridine-6-carboxamide] |
| 2 | 3 | 172 to 174 |  |  | CC(C)(C)C(=O)NCc1ccc(Cl)c(Nc2nc3cc(C(=O)N[C@H]4CC[C@H](C(F)(F)F)CC4)c(N4CCC(C(F)(F)F)CC4)nc3n2CC(F)F)c1Cl [Example 27] |
| 16 | 5 |  |  |  | Cn1c(Nc2c(Cl)ccc(CNC(=O)C(C)(C)C)c2Cl)nc2cc(C(=O)NC3CC(F)(F)C3)c(N3CCC(C(F)(F)F)CC3)nc21 [Example 35] |

Reference: patent US8486968B2, “Compounds” (Boehringer Ingelheim International GmbH, priority 2010, dated 2013)
